Laboratory results: patent US20030004355A1, “Fused pyrazolyl compounds” (priority 2001, published 2003)

Key:
platelets = test: Inhibition of platelet aggregation (turbidimetric, washed platelets); format: cell-based; conditions: washed rabbit platelets, AA; for inhibitory effect on platelet aggregation induced by different inducers: inducers thrombin, collagen, PAF, read 5 minutes after the inducer
Experimental: In vitro assays can be used to evaluate the efficacy of a fused pyrazolyl compound of this invention in inhibiting platelet aggregation; which is attributable to low intracellular cGMP levels. For example, the compound is incubated in a platelet suspension containing a platelet aggregation factor, and the degree of aggregation is measured turbidimetrically with a dual-channel lumiaggregometer and converted into a percentage value by the method described in Teng et al., Biochem. Biophys Acta. 1987, 924:375-382.
EDTA was added to blood collected from the marginal ear vein of a rabbit to reach a final EDTA concentration of 6 mM. The EDTA-containing blood was then centrifuged at 90×g for 10 minutes at the room temperature. The supernatant, a platelet-rich plasma, was further centrifuged at 500×g for 10 minutes. The platelet pellets thus obtained were washed with a solution containing EDTA (2 mM) and serum albumin (3.5 mg/mL), and then centrifuged again at 500×g for 10 minutes. The pellets were then washed with an EDTA-free Tyrode's solution of the following composition (mM): NaCl (136.8), KCl (2.8), NaHCO3 (11.9), MgCl2 (1.1), NaH2PO4 (0.33), CaCl2 (1.0), and glucose (11.2). After centrifugation under the same conditions, the platelet pellets were suspended in the EDTA-free Tyrode's solution described above. The platelet number was counted by a Coulter Counter (Model ZM) and adjusted to 4.5×10^8 platelets/mL.
A compound to be tested was added to 4 platelet suspensions, which were then incubated at 37° C. for 3 minutes under a stirring condition (900 rpm). One minute after the stirring, four aggregation inducers, i.e., thrombin, collagen, arachidonic acid (AA), and platelet aggregation factor (PAF), were respectively added into the 4 suspensions, causing the platelets to aggregate. Platelet aggregation in each suspension was measured with a dual-channel lumiaggregometer (Model 1020, Payton, Canada) by the turbidimetric method described in Born et al., J. Physiol. 1963, 168:178-195. The percentage values of the platelet aggregation, determined 5 minutes after the addition of each aggregation inducer, were calculated by the method described in Teng et al., Biochem. Biophys Acta. 1987, 924:375-382.

PDEs = test: Inhibition of PDE (conversion of [3H]cGMP by platelet lysate supernatant); format: biochemical; conditions: 10 μM compound; washed human platelet supernatant; 10 μM cGMP; 37° C., 30 minutes
Experimental: The efficacy of a compound in inhibiting PDEs can be evaluated in vitro by the following assay. Washed platelets are suspended in a Tris-HCl buffer and disrupted by sonication. The lysate is centrifuged to obtain a supernatant which contains PDEs. An aliquot of the supernatant is taken to prepare a PDE-containing solution. The compound to be tested and cGMP (a substrate for PDE) are added to the solution. Ophiophagus hannah snake venom is subsequently added to remove the phosphate in 5′-GMP (converted from cGMP by PDEs) to form uncharged guanosine. An ion-exchange resin is used to remove the remaining cGMP. The cGMP-free solution is then centrifuged, and an aliquot of the supernatant is taken for quantification of the uncharged guanosine in a liquid scintillation counter. Activity of PDEs is evaluated based on the amount of the uncharged guanosine.
Washed human platelets were prepared by the method described in Teng et al., Biochem. Biophys. Acta. 1989, 990:315-320. They were then suspended in 50 mM pH 7.4 Tris-HCl buffer (containing 5 mM MgCl2) and subsequently disrupted by sonication at 4° C. […] Each cGMP-free solution thus obtained was then centrifuged, and an aliquot (0.5 mL) of the supernatant was taken for quantification of uncharged guanosine in a liquid scintillation counter.

sGC = test: Activation of sGC (conversion of [α-32P]GTP to cGMP by platelet lysate supernatant); format: biochemical; conditions: 100 μM compound; washed rabbit platelet supernatant; 30° C., 10 minutes
Experimental: The efficacy of a compound in activating sGC can be evaluated in vitro by the following assay. Washed platelets are suspended in a buffer and disrupted by sonication. The lysate is then centrifuged to obtain a supernatant which is used as the source of sGC. An aliquot of the supernatant and the compound to be tested are added into a buffer containing GTP, a substrate for sGC. The activity of sGC can be determined by the method described in Gerzer et al., J. Pharmacol. Exp. Ther. 1983, 226:180.
Washed rabbit platelets were prepared by the method described in Teng et al., Thromb. Haemost. 1988, 59:304. They were then suspended in 50 mM pH 7.4 Tris-HCl buffer and subsequently disrupted by sonication. The lysate thus obtained was centrifuged at 39,000×g at 4° C. for 20 minutes, and the supernatant was used as the source of sGC. Two 50 μL aliquots of the supernatant were respectively added to two 150 μL pH 7.4 Tris-HCl (50 mM) buffer solutions, each containing GTP (0.2 mM, containing 1×10^6 cpm [α-^32P]GTP), MgCl2 (5 mM), cGMP (2.5 mM), creatine phosphate (15 mM), and creatine phosphokinase (30 μg). One of the two solutions also contained 100 μM compound 3. After incubation at 30° C. for 10 minutes, conversion of GTP to cGMP by sGC was terminated with HCl (200 μL, 0.5 N). […] Radioactivity ([^32P]cGTP) was measured in a liquid scintillation counter to determine the amount of […].

COC(=O)c1ccc(-c2nn(Cc3ccccc3)c3cc4c(cc23)OCO4)o1 [Compound 1, 1-benzyl-3-(5′-methoxycarbonyl-2′-furyl)-5,6-methylenedioxoindazole]
inhibitory effect on platelet aggregation induced by different inducers (platelets): showed inhibitory effect on platelet aggregation

O=C(O)c1ccc(-c2nn(Cc3ccccc3)c3cc4c(cc23)OCO4)o1 [Compound 2, 1-benzyl-3-(5′-hydroxycarbonyl-2′-furyl)-5,6-methylenedioxoindazole]
inhibitory effect on platelet aggregation induced by different inducers (platelets): showed inhibitory effect on platelet aggregation

OCc1ccc(-c2nn(Cc3ccccc3)c3cc4c(cc23)OCO4)o1 [Compound 3, 1-benzyl-3-(5′-hydroxymethyl-2′-furyl)-5,6-methylenedioxoindazole]
relative effectiveness in inhibiting platelet aggregation among compounds 1-4 (platelets; aggregation induced by thrombin, collagen, and PAF): the most effective | inhibitory effect on platelet aggregation induced by different inducers (platelets): showed inhibitory effect on platelet aggregation | inhibition of PDEs (PDEs): potent inhibitor of PDEs | activation of sGC (sGC): effective activator of sGC

COCc1ccc(-c2nn(Cc3ccccc3)c3cc4c(cc23)OCO4)o1 [Compound 4, 1-benzyl-3-(5′-methoxymethyl-2′-furyl)-5,6-methylenedioxoindazole]
inhibitory effect on platelet aggregation induced by different inducers (platelets): showed inhibitory effect on platelet aggregation
